This note sets out measurements from ChEMBL document CHEMBL4513141, “CO-ADD screening of NIH (USA) - Clinical Collection” (2021).

A word on the CC50: it is the concentration that lowers cell viability or growth by half.

One assay deals with Escherichia coli. Kind of assay: microbe, parasite or virus in culture. Conditions: ATCC 25922, 18 h, ASSAY_TEST Inhibition of Bacterial Growth, detection method Absorption (OD600), MEDIA CAMHB, plate type 384well, NBS, CORNING #3640.
In another assay the test system is Acinetobacter baumannii. The assay can be described thus: microbe, parasite or virus in culture. To be noted: ATCC 19606, 18 h, ASSAY_TEST Inhibition of Bacterial Growth, detection method Absorption (OD600), MEDIA CAMHB, plate type 384well, NBS, CORNING #3640.
For another assay, the system named is Candida albicans. The assay can be described thus: microbe, parasite or virus in culture. Conditions: ATCC 90028, ASSAY_TEST Inhibition of Fungal Growth, detection method Absorption (OD530), plate type 384well, NBS, CORNING #3640.
The next assay deals with Pseudomonas aeruginosa. The assay can be described thus: microbe, parasite or virus in culture. Conditions: ATCC 27853, 18 h, ASSAY_TEST Inhibition of Bacterial Growth, detection method Absorption (OD600), MEDIA CAMHB, plate type 384well, NBS, CORNING #3640.
A further assay concerns Klebsiella pneumoniae. Kind of assay: microbe, parasite or virus in culture. To be noted: ATCC 700603, 18 h, ASSAY_TEST Inhibition of Bacterial Growth, detection method Absorption (OD600), MEDIA CAMHB, plate type 384well, NBS, CORNING #3640.
For another assay, the system named is HEK293. The assay can be described thus: cells. The assay is classed as functional, Homo sapiens, ATCC CRL1573. Conditions: ASSAY_TEST Inhibition of Cell Viability, detection method Resazurin, Fluorescence (ex560/em590), MEDIA DMEM with 10% FBS, plate type 384well, TC, CORNING #3712, time 18 hr. On the technique in general: The colour change of resazurin is a common sign of viable cells or microbes.

The test system of a further assay is Staphylococcus aureus. Kind of assay: microbe, parasite or virus in culture. Conditions: ATCC 43300, 18 h, ASSAY_TEST Inhibition of Bacterial Growth, detection method Absorption (OD600), MEDIA CAMHB, plate type 384well, NBS, CORNING #3640.
Where [1] appears, read: Homo sapiens, ATCC CRL1573, HEK293.

Structures are written as SMILES. ≈ marks a conversion by molar mass, not a printed value. Counter-ions that a name gives are not always drawn.

Description for Acinetobacter baumannii: Antibacterial activity against Acinetobacter baumannii ATCC 19606 (CO-ADD:GN_034); MIC in CAMBH media using NBS plates, by OD600
Description for Candida albicans: Antifungal activity against Candida albicans ATCC 90028 (CO-ADD:FG_001); MIC in YNB media using NBS plates, by OD630
Description for Cryptococcus neoformans: Antifungal activity against Cryptococcus neoformans H99 ATCC 208821 (CO-ADD:FG_002); MIC in YNB media using NBS plates, by Resazurin OD(600-570)
Description for Escherichia coli: Antibacterial activity against Escherichia coli ATCC 25922 (CO-ADD:GN_001); MIC in CAMBH media using NBS plates, by OD(600)
Description for Klebsiella pneumoniae: Antibacterial activity against Klebsiella pneumoniae MDR ATCC 70063 (CO-ADD:GN_003); MIC in CAMBH media using NBS plates, by OD(600)
Description for Pseudomonas aeruginosa: Antibacterial activity against Pseudomonas aeruginosa ATCC 27853 (CO-ADD:GN_042); MIC in CAMBH media using NBS plates, by OD(600)
Description for Staphylococcus aureus: Antibacterial activity against Staphylococcus aureus MRSA ATCC 43300 (CO-ADD:GP_020); MIC in CAMBH media, using NBS plates, by OD(600)

In the case of `c1ccc(-c2ccc(C(c3ccccc3)n3ccnc3)cc2)cc1` (stereo not drawn) [BIFONAZOLE], the MIC against Escherichia coli, against Acinetobacter baumannii, against Candida albicans, in the assay with Pseudomonas aeruginosa, in the assay on Klebsiella pneumoniae and against Staphylococcus aureus was greater than 10 µM throughout. This compound had an MIC against Cryptococcus neoformans of 10 µM (≈ 3.1 µg/mL). The same compound registered a half-maximal cytotoxic concentration (CC50) in the assay on HEK293 (setting [1]) greater than 10 µM.

As for `N[C@@H](C(=O)N[C@@H]1C(=O)N2C(C(=O)O)=C(Cl)CS[C@H]12)c1ccccc1` [CEFACLOR ANHYDROUS], the MIC in the assay with Escherichia coli, against Acinetobacter baumannii, against Candida albicans, against Pseudomonas aeruginosa, in the assay with Klebsiella pneumoniae and in the assay with Staphylococcus aureus was greater than 10 µM throughout. The compound further came in with an MIC against Cryptococcus neoformans greater than 10 µM. This compound displayed a CC50 in the assay on HEK293 (setting [1]) greater than 10 µM.

Turning to `CC(=O)NC[C@H]1CN(c2ccc(N3CCOCC3)c(F)c2)C(=O)O1` [LINEZOLID], the MIC was greater than 10 µM against Escherichia coli; greater than 10 µM against Acinetobacter baumannii; greater than 10 µM with Candida albicans; greater than 10 µM against Pseudomonas aeruginosa; greater than 10 µM against Klebsiella pneumoniae; 2.5 µM (≈ 0.843 µg/mL) against Staphylococcus aureus. For the same compound, the MIC with Cryptococcus neoformans was greater than 10 µM. Besides, the CC50 in the assay with HEK293 (setting [1]) came to 4.46 µM.

For `CN(CCCN1c2ccccc2CCc2ccccc21)CC(=O)c1ccc(Cl)cc1` [LOFEPRAMINE], the MIC in the assay on Escherichia coli, with Acinetobacter baumannii, against Candida albicans, against Pseudomonas aeruginosa, with Klebsiella pneumoniae and in the assay with Staphylococcus aureus was greater than 10 µM each time. The compound further had an MIC with Cryptococcus neoformans greater than 10 µM. In the assay with HEK293 (setting [1]), the CC50 is greater than 10 µM.

In the case of `O=c1[nH]cnc2c1ncn2[C@H]1CC[C@@H](CO)O1` [DIDANOSINE], the MIC against Escherichia coli, against Acinetobacter baumannii, against Candida albicans, against Pseudomonas aeruginosa, with Klebsiella pneumoniae and in the assay on Staphylococcus aureus was greater than 10 µM each time. In the assay on Cryptococcus neoformans, the MIC was greater than 10 µM. The CC50 with HEK293 (setting [1]) was greater than 10 µM.

In the case of `COCc1c(C(C)C)nc(C(C)C)c(/C=C/[C@@H](O)C[C@@H](O)CC(=O)O)c1-c1ccc(F)cc1` [CERIVASTATIN SODIUM], the MIC against Escherichia coli was greater than 10 µM; with Acinetobacter baumannii, greater than 10 µM; in the assay with Candida albicans, 5 µM; against Pseudomonas aeruginosa, greater than 10 µM; against Klebsiella pneumoniae, greater than 10 µM; with Staphylococcus aureus, greater than 10 µM. Moreover, the MIC against Cryptococcus neoformans turned out to be 5 µM. Further, the CC50 in the assay with HEK293 (setting [1]) was greater than 10 µM.

`COc1cccc2c1C(=O)c1c(O)c3c(c(O)c1C2=O)C[C@@](O)(C(=O)CO)C[C@@H]3O[C@H]1C[C@H](N)[C@H](O)[C@H](C)O1` [DOXORUBICIN HYDROCHLORIDE]: the MIC with Escherichia coli is greater than 10 µM; in the assay on Acinetobacter baumannii it was greater than 10 µM; against Candida albicans, greater than 10 µM; against Pseudomonas aeruginosa, greater than 10 µM; against Klebsiella pneumoniae it was greater than 10 µM; against Staphylococcus aureus, 10 µM. In the assay on Cryptococcus neoformans, the MIC was greater than 10 µM. Also, in the assay on HEK293 (setting [1]), the CC50 was greater than 10 µM.

Take `COC(=O)Nc1nc2cc(C(=O)c3ccc(F)cc3)ccc2[nH]1` [FLUBENDAZOLE]: the MIC in the assay with Escherichia coli, against Acinetobacter baumannii, with Candida albicans, with Pseudomonas aeruginosa, with Klebsiella pneumoniae and in the assay with Staphylococcus aureus was greater than 10 µM in each case. The MIC in the assay with Cryptococcus neoformans is greater than 10 µM. In the assay on HEK293 (setting [1]), this compound displayed a CC50 of 7.02 µM.

Turning to `CN(C)c1ccc(O)c2c1C[C@H]1C[C@H]3[C@H](N(C)C)C(O)=C(C(N)=O)C(=O)[C@@]3(O)C(O)=C1C2=O` [MINOCYCLINE HYDROCHLORIDE], the MIC in the assay on Escherichia coli is 2.5 µM; against Acinetobacter baumannii, greater than 10 µM; with Candida albicans it was greater than 10 µM; in the assay on Pseudomonas aeruginosa, 0.312 µM; in the assay with Klebsiella pneumoniae, greater than 10 µM; in the assay on Staphylococcus aureus, 0.312 µM. Further, the MIC against Cryptococcus neoformans was greater than 10 µM. This compound registered a CC50 with HEK293 (setting [1]) of 0.0983 µM.

On to `O=C(NC(CO)C(O)c1ccc([N+](=O)[O-])cc1)C(Cl)Cl` (stereo not drawn), for which the MIC with Escherichia coli is 10 µM (≈ 3.23 µg/mL); against Acinetobacter baumannii, greater than 10 µM; against Candida albicans, greater than 10 µM; in the assay on Pseudomonas aeruginosa it was greater than 10 µM; against Klebsiella pneumoniae, greater than 10 µM; against Staphylococcus aureus, greater than 10 µM. Moreover, the MIC against Cryptococcus neoformans is greater than 10 µM. Also, the CC50 in the assay on HEK293 (setting [1]) is greater than 10 µM.

In the case of `C=CC1=C(C(=O)O)N2C(=O)[C@@H](NC(=O)/C(=N/OCC(=O)O)c3csc(N)n3)[C@H]2SC1`, the MIC is 2.5 µM (≈ 1.13 µg/mL) with Escherichia coli; greater than 10 µM against Acinetobacter baumannii; greater than 10 µM against Candida albicans; greater than 10 µM against Pseudomonas aeruginosa; greater than 10 µM with Klebsiella pneumoniae; greater than 10 µM with Staphylococcus aureus. The MIC in the assay with Cryptococcus neoformans is greater than 10 µM. In addition, the CC50 in the assay with HEK293 (setting [1]) is greater than 10 µM.

Turning to `NC(=O)OCC(COC(N)=O)c1ccccc1`, the MIC against Escherichia coli, against Acinetobacter baumannii, against Candida albicans, with Pseudomonas aeruginosa, against Klebsiella pneumoniae and in the assay with Staphylococcus aureus was greater than 10 µM in each case. This compound also gave an MIC in the assay on Cryptococcus neoformans greater than 10 µM. This compound registered a CC50 in the assay with HEK293 (setting [1]) greater than 10 µM.

As to `CC(=O)Oc1ccccc1C(=O)Nc1ncc([N+](=O)[O-])s1` [NITAZOXANIDE], the MIC in the assay with Escherichia coli, in the assay with Acinetobacter baumannii, against Candida albicans, with Pseudomonas aeruginosa, in the assay with Klebsiella pneumoniae and in the assay with Staphylococcus aureus was greater than 10 µM in each case. This compound returned an MIC in the assay with Cryptococcus neoformans greater than 10 µM. In the assay on HEK293 (setting [1]), this compound came in with a CC50 greater than 10 µM.

Regarding `COC1=C(OC)C(=O)C(CCCCCCCCCCO)=C(C)C1=O` [IDEBENONE], the MIC against Escherichia coli, against Acinetobacter baumannii, with Candida albicans, against Pseudomonas aeruginosa, in the assay with Klebsiella pneumoniae and in the assay with Staphylococcus aureus was greater than 10 µM each time. This compound displayed an MIC against Cryptococcus neoformans greater than 10 µM. In the assay on HEK293 (setting [1]), this compound had a CC50 greater than 10 µM.

Consider `COc1cccc2c1C(=O)c1c(O)c3c(c(O)c1C2=O)C[C@@](O)(C(=O)CO)C[C@@H]3O[C@H]1C[C@H](N)[C@@H](O)[C@H](C)O1` [EPIRUBICIN HYDROCHLORIDE], for which the MIC was greater than 10 µM with Escherichia coli; greater than 10 µM against Acinetobacter baumannii; greater than 10 µM in the assay on Candida albicans; greater than 10 µM in the assay on Pseudomonas aeruginosa; greater than 10 µM against Klebsiella pneumoniae; 10 µM against Staphylococcus aureus. The compound also gave an MIC with Cryptococcus neoformans greater than 10 µM. The half-maximal cytotoxic concentration (CC50) in the assay with HEK293 (setting [1]) was determined as 1.14 µM.

With `CC(C)/N=c1\cc2n(-c3ccc(Cl)cc3)c3ccccc3nc-2cc1Nc1ccc(Cl)cc1` [CLOFAZIMINE], the MIC in the assay on Escherichia coli, in the assay with Acinetobacter baumannii, with Candida albicans, against Pseudomonas aeruginosa, in the assay with Klebsiella pneumoniae and in the assay on Staphylococcus aureus was greater than 10 µM throughout. In the assay with Cryptococcus neoformans, this compound had an MIC greater than 10 µM. Further, half-maximal cytotoxicity in the assay on HEK293 (CC50) was put at 0.31 µM.

As to `CC(=O)[C@]1(O)Cc2c(O)c3c(c(O)c2[C@@H](O[C@H]2C[C@H](N)[C@H](O)[C@H](C)O2)C1)C(=O)c1ccccc1C3=O` [IDARUBICIN HYDROCHLORIDE], the MIC against Escherichia coli was greater than 10 µM; in the assay with Acinetobacter baumannii, greater than 10 µM; in the assay on Candida albicans, greater than 10 µM; against Pseudomonas aeruginosa, greater than 10 µM; in the assay on Klebsiella pneumoniae, greater than 10 µM; with Staphylococcus aureus it was 5 µM. The MIC in the assay with Cryptococcus neoformans was greater than 10 µM. Further, the CC50 in the assay on HEK293 (setting [1]) is greater than 10 µM.

Consider `O=C(O)C[C@H](O)C[C@H](O)/C=C/c1c(C2CC2)nc2ccccc2c1-c1ccc(F)cc1` [PITAVASTATIN CALCIUM], for which the MIC is greater than 10 µM against Escherichia coli; greater than 10 µM against Acinetobacter baumannii; 2.5 µM in the assay on Candida albicans; greater than 10 µM in the assay with Pseudomonas aeruginosa; greater than 10 µM in the assay with Klebsiella pneumoniae; greater than 10 µM against Staphylococcus aureus. Moreover, the MIC against Cryptococcus neoformans stood at 10 µM. Further, the CC50 in the assay with HEK293 (setting [1]) is greater than 10 µM.

As for `CCn1cc(C(=O)O)c(=O)c2ccc(C)nc21` [NALIDIXIC ACID], the MIC in the assay with Escherichia coli, with Acinetobacter baumannii, against Candida albicans, with Pseudomonas aeruginosa, in the assay on Klebsiella pneumoniae and with Staphylococcus aureus was greater than 10 µM in each case. Besides, the MIC with Cryptococcus neoformans was greater than 10 µM. The same compound yielded a CC50 in the assay on HEK293 (setting [1]) greater than 10 µM.

Take `CN1CCN(c2c(F)cc3c(=O)c(C(=O)O)cn4c3c2SCC4)CC1`: the MIC in the assay on Escherichia coli is 1.25 µM (≈ 0.454 µg/mL); against Acinetobacter baumannii, greater than 10 µM; against Candida albicans, greater than 10 µM; against Pseudomonas aeruginosa, 10 µM (≈ 3.63 µg/mL); in the assay with Klebsiella pneumoniae it was greater than 10 µM; against Staphylococcus aureus, 2.5 µM (≈ 0.909 µg/mL). Besides, the MIC in the assay with Cryptococcus neoformans is greater than 10 µM. This compound also yielded a CC50 in the assay on HEK293 (setting [1]) greater than 10 µM.

As for `Clc1ccccc1C(c1ccccc1)(c1ccccc1)n1ccnc1` [CLOTRIMAZOLE], the MIC in the assay on Escherichia coli is greater than 10 µM; with Acinetobacter baumannii, greater than 10 µM; with Candida albicans, 0.156 µM (≈ 0.0539 µg/mL); against Pseudomonas aeruginosa, greater than 10 µM; against Klebsiella pneumoniae, greater than 10 µM; in the assay on Staphylococcus aureus, greater than 10 µM. The compound also showed an MIC with Cryptococcus neoformans of 1.25 µM (≈ 0.431 µg/mL). The compound further came in with a CC50 with HEK293 (setting [1]) greater than 10 µM.
